This note sets out measurements from ChEMBL document CHEMBL1137785, “Discovery of geranylgeranyltransferase-I inhibitors with novel scaffolds by the means of quantitative structure-activity relationship modeling, virtual screening, and experimental validation” (J Med Chem, 2009).

Where only a bound is given, the exact number is not on record here.

The nature of one test: Displacement of [3H]GGpp from GGTase1 expressed in Sf9 cells.
Conditions: not given
In general terms: Loss of bound radioactivity is the signal in a displacement assay; it reports binding, not function.
In general, pIC50 refers to the negative decadic logarithm of the IC50, by convention in mol/L. Lower therefore signals a high IC50. Take `CCCC(C(=O)NCc1ccccc1)N(Cc1ccccc1Cl)C(=O)Cn1nnc(-c2ccc(Cl)cc2)n1` (stereo not given): the pIC50 is reported as 4.43.

Compound `Cc1ccc(C(=O)N/C(=C/c2ccc(-c3ccc(Cl)c(Cl)c3)o2)C(=O)NCc2ccccc2)cc1` came in with a pIC50 of 3.84.

Regarding `Cc1ccc(C(CC(N)=O)NC(=O)CC(=O)CNc2cc(-c3cccnc3)nn2-c2ccc(Cl)c(Cl)c2)cc1` (stereo not given), the pIC50 is listed as 5.23.

With `Cc1ccc(C(CC(N)=O)NC(=O)[C@H]2C[C@H](c3cc(-c4cccnc4)nn3-c3ccc(Cl)c(Cl)c3)C2(C)C)cc1` (stereo not given in full), the pIC50 is recorded as 5.94.

`Cc1ccc(C(NC(=O)c2ccc(-c3cc(-c4cccnc4)nn3-c3ccc(Cl)c(Cl)c3)s2)C(O)C(N)=O)cc1` (stereo not given) displayed a pIC50 of 5.08.

In turn, `COc1ccccc1-c1nnc(SCC(=O)Nc2ccc(C(N)=O)cc2)n1CCc1ccccc1` gave a pIC50 of 5.56.

`Cc1ccc(C(CC(N)=O)NC(=O)CC(=O)Nc2cc(-c3cccnc3)nn2-c2ccc(Cl)c(Cl)c2)cc1` (stereo not given) registered a pIC50 of 5.58. The pIC50 values of the last two compounds are within 0.2 log units of each other.

Consider `CCCOc1ccc(-c2nn(-c3ccccc3)cc2/C=N/NC(=O)CNC(=O)c2cccc(Cl)c2)cc1`, for which the pIC50 was 4.02.

Compound `Cc1ccc(-c2cc(NCNCCCCS)ccc2C(=O)N[C@@H](CCC(C)C)C(=O)O)cc1` displayed a negative logarithm of the IC50 (pIC50) of 6.68.

Take `Cc1ccc(C(=O)N/C(=C\c2ccc(-c3ccc(Cl)c(Cl)c3)o2)C(=O)NCc2ccccc2)cc1`: the pIC50 was determined as 5.56.

As for `Cc1ccc([C@@H](CC(N)=O)NC(=O)c2ccc(-c3cc(-c4cccnc4)nn3-c3ccc(Cl)c(Cl)c3)s2)cc1`, the pIC50 was found to be 4.68.

For `Cc1ccc(C(NC(N)=O)NC(=O)CCCOc2cc(-c3cccnc3)nn2-c2ccc(Cl)c(Cl)c2)cc1` (stereo not given), the pIC50 is listed as 5.4.

`Cc1ccc(-c2nn(-c3ccccc3)cc2/C=N/NC(=O)C(=O)Nc2cc(Cl)ccc2Cl)cc1` came in with a pIC50 of 4.43.

`Cc1ccc(C(CC(N)=O)NC(=O)C2CCCN(Cc3cc(-c4cccnc4)nn3-c3ccc(Cl)c(Cl)c3)C2)cc1` (stereo not given) had a negative logarithm of the IC50 (pIC50) of 4.3.

As to `Cc1ccc(C(CC(N)=O)NC(=O)c2ccc(-c3cc(-c4cccnc4)nn3-c3ccc(Cl)c(Cl)c3)cc2)cc1` (stereo not given), the pIC50 is 5.82.

As to `CSCCCc1c(-c2cccnc2)nn(-c2ccc(Cl)c(Cl)c2)c1OCCCC(=O)NC(CC(N)=O)c1ccc(C)cc1` (stereo not given), the pIC50 amounted to 7.55.

With `CCN(C(=O)CCCOc1cc(-c2cccnc2)nn1-c1ccc(Cl)c(Cl)c1)C(CC(N)=O)c1ccc(C)cc1` (stereo not given), the pIC50 came to 6.27.

`CCCn1c(COc2ccc(C(C)Cc3ccccc3)cc2)nnc1SCC(=O)Nc1ccc(C(N)=O)cc1` (stereo not given) showed a pIC50 of 4.19.

Regarding `Cc1ccc(C(CC(N)=O)NC(=O)CCCCOc2cc(-c3cccnc3)nn2-c2ccc(Cl)c(Cl)c2)cc1` (stereo not given), the pIC50 was 5.53.

`Cc1ccc(C(CC(N)=O)NC(=O)c2ccc(-c3cc(-c4cccnc4)nn3CCc3ccccc3)s2)cc1` (stereo not given): the pIC50 stood at 4.02.

`NC(=O)CC(NC(=O)c1ccc(-c2cc(-c3cccnc3)nn2-c2ccc(Cl)c(Cl)c2)s1)OCc1ccccc1` (stereo not given) showed a pIC50 of 5.57.

Compound `Cc1ccc(C(CC(N)=O)NC(=O)CCCN(CCN2CCOCC2)c2cc(-c3cccnc3)nn2-c2ccc(Cl)c(Cl)c2)cc1` (stereo not given) returned a pIC50 of 5.09.

`Cc1ccc(C(CC(N)=O)NC(=O)COc2cc(-c3cccnc3)nn2-c2ccc(Cl)c(Cl)c2)cc1` (stereo not given) gave a pIC50 of 4.43.

Take `Cc1ccc(C(CC(N)=O)NC(=O)CCNCc2cc(-c3cccnc3)nn2-c2ccc(Cl)c(Cl)c2)cc1` (stereo not given): the pIC50 was determined as 6.35.

In turn, `CC(C)c1ccc(N(CC(=O)NCc2ccccc2)C(=O)Cn2nnc(-c3ccc(Cl)cc3)n2)cc1` displayed a pIC50 of 4.19.

On to `Cc1ccc(C(NC(=O)CCCOc2cc(-c3cccnc3)nn2-c2ccc(Cl)c(Cl)c2)C(=N)N)cc1` (stereo not given), for which the pIC50 is on record as 5.97.

`Cc1ccc(C(CC(N)=O)NC(=O)C[C@H](O)COc2cc(-c3cccnc3)nn2-c2ccc(Cl)c(Cl)c2)cc1` (stereo not given in full): the pIC50 turned out to be 5.79.

Consider `NC(=O)CC(NC(=O)c1ccc(-c2cc(-c3cccnc3)nn2-c2ccc(Cl)c(Cl)c2)cc1)OCc1ccccc1` (stereo not given), for which the pIC50 turned out to be 5.63. The pIC50 values of the last two compounds are within 0.2 log units of each other.

For `Cc1ccc(C(CC(N)=O)NC(=O)CCCOc2c(CCCO)c(-c3cccnc3)nn2-c2ccc(Cl)c(Cl)c2)cc1` (stereo not given), the pIC50 is listed as 7.17.

With `O=C(Cn1c(=O)n(Cc2c[nH]cn2)c(=O)c2ccccc21)N[C@@H](Cc1ccccc1)C(=O)O`, the negative logarithm of the IC50 (pIC50) is listed as 5.77.

In turn, `COCCN(CCC(=O)NC(CC(N)=O)c1ccc(C)cc1)Cc1cc(-c2cccnc2)nn1-c1ccc(Cl)c(Cl)c1` (stereo not given) showed a pIC50 of 7.

Compound `Cc1ccc(CN(CC(N)=O)C(=O)CCCCc2cc(-c3cccnc3)nn2-c2ccc(Cl)c(Cl)c2)cc1` gave a pIC50 of 4.53.

As for `Cc1ccc(CCN(CC(N)=O)C(=O)CCCOc2cc(-c3cccnc3)nn2-c2ccc(Cl)c(Cl)c2)cc1`, the pIC50 was found to be 5.82.

`NC(=O)CC(NC(=O)CCCNc1cc(-c2cccnc2)nn1-c1ccc(Cl)c(Cl)c1)c1cccnc1` (stereo not given) showed a pIC50 of 6.32.

`CCCC[C@H](NC(=O)c1ccc(NCNCCCCS)cc1-c1ccccc1)C(=O)O`: the pIC50 worked out at 7.14.

`Cc1ccc(C(CC(=O)O)NC(=O)c2ccc(-c3cc(-c4cccnc4)nn3-c3ccc(Cl)c(Cl)c3)s2)cc1` (stereo not given): the pIC50 amounted to 5.73.

On to `NC(=O)CC(NC(=O)CCCOc1cc(-c2cccnc2)nn1-c1ccc(Cl)c(Cl)c1)c1ccc(-c2ccccc2)cc1` (stereo not given), for which the pIC50 came to 6.21.

In the case of `Cc1ccc(C(CC(N)=O)NC(=O)CC(=O)COc2cc(-c3cccnc3)nn2-c2ccc(Cl)c(Cl)c2)cc1` (stereo not given), the pIC50 is on record as 4.86.

Compound `CCN(CCCC(=O)NC(CC(N)=O)c1ccc(C)cc1)c1cc(-c2cccnc2)nn1-c1ccc(Cl)c(Cl)c1` (stereo not given) yielded a pIC50 of 5.7.

The compound `COc1ccc(OCc2nnc(SCC(=O)Nc3ccc(C(N)=O)cc3)n2CCc2ccccc2)cc1` yielded a pIC50 of 5.56. This pIC50 and that of the compound before are within 0.2 log units of each other.

What is called IC50 is the point on the concentration scale where inhibition reaches its midpoint. Take `O=C(O)C[C@H](Cc1c[nH]c2ccccc12)NC(=O)Cn1c(=O)[nH]c2ccccc2c1=O`: the IC50 was more than 100 µM.

On to `O=C(O)CNC(=O)[C@H](Cc1c[nH]c2ccccc12)NC(=O)Cn1c(=O)[nH]c2ccccc2c1=O`, for which the IC50 was more than 100 µM.

The compound `Cc1ccc(C(CC(N)=O)NC(=O)c2ccc(-c3cc(-c4cccnc4)nn3-c3ccc(Cl)c(Cl)c3)s2)cc1` (stereo not given) yielded a pIC50 of 4.35.

`Cc1ccc(C(CO)NC(=O)c2ccc(-c3cc(-c4cccnc4)nn3-c3ccc(Cl)c(Cl)c3)s2)cc1` (stereo not given) displayed a pIC50 of 5.11.

As for `NC(=O)CN(CC1CCCCC1)C(=O)CCCOc1cc(-c2cccnc2)nn1-c1ccc(Cl)c(Cl)c1`, the pIC50 was determined as 5.84.

Turning to `Cc1ccc(C(CC(N)=O)NC(=O)CC[C@H](C)Nc2cc(-c3cccnc3)nn2-c2ccc(Cl)c(Cl)c2)cc1` (stereo not given in full), the pIC50 came to 6.23.

In turn, `Cc1ccc([C@@H](CC(N)=O)NC(=O)c2ccc(-c3cc(-c4cccnc4)nn3-c3ccc(Cl)c(Cl)c3)cc2)cc1` returned a pIC50 of 3.84.

Still in this test, the particulars now being: read-out: IC50.
In the case of `Cc1ccc(C(=O)N/C(=C/c2ccc(-c3ccc(Cl)c(Cl)c3)o2)C(=O)NCc2ccccc2)cc1`, the IC50 came to 8 µM.

With `CC[C@@H](C(=O)NCc1ccccc1)N(Cc1ccccc1Cl)C(=O)Cn1nnc(-c2ccc(C)cc2)n1`, the IC50 was determined as 35 µM.

In the case of `CCc1ccc(OCc2nnc(SCC(=O)Nc3ccc(C(N)=O)cc3)n2C(C)c2ccccc2)cc1` (stereo not given), the IC50 is 43 µM.
